# Measurements taken from patent publication US6967205B1, “Compounds with antibacterial and antiparasitic properties” (New Pharma Research Sweden AB, priority 1999, dated 2005).
# Legend:
# Test in all cases: M.I.C. by broth dilution method (NCCLS 1988), gram-positive bacteria
# Format in all cases: cell-based
# [1] = system: Staph. aureus (ATCC 29737); conditions: for MIC: Staphylococcus aureus, ATCC29737, in vitro broth dilution
# Method: (§1) The antibacterial activity of the present compounds was investigated by in vitro evaluation of their M.I.C. (Minimum Inhibitory Concentration) values. The evaluation was conducted in complete accordance with the “Broth dilution method”, as outlined by the U.S. National Committee for Clinical Laboratory Standards “NCCLS 1988”.
# (§2) Solutions of the present compounds were prepared by dissolving 0.01 g of a test compound in either 10% KOH (aq) or a 10% KOH/DMF mixture, after which sterile, distilled H2O was added up to a total volume of 10 ml, thereby yielding a test compound concentration of 1 000 μg/ml.
# (§3) In this evaluation, the antibacterial activity of the present compounds and enrofloxacin as reference compound was tested against seven strains of gram-positive bacteria, namely Bacillus subtilus (ATCC 6633), Bacillus cereus, Streptococcus faecium, Micrococcus Luteus (ATCC 9341), Staph. aureus (ATCC 29737), Staph. epidermidis (ATCC 12228) and Staphylococcus (ATCC 6538).
# Streptococcus faecium = conditions: in vitro broth dilution; for MIC: Enterococcus faecium, read-out: M.I.C. values Streptoc. faecium
# Method: as §1, §2, §3
# [2] = system: Staph. epidermidis (ATCC 12228); conditions: for MIC: Staphylococcus epidermidis, ATCC12228, in vitro broth dilution
# Method: as §1, §2, §3
# [3] = system: Bacillus subtilus (ATCC 6633); conditions: for MIC: ATCC6633, in vitro broth dilution
# Method: as §1, §2, §3
# Bacillus cereus = conditions: in vitro broth dilution
# Method: as §1, §2, §3
# [4] = system: Micrococcus Luteus (ATCC 9341); conditions: for MIC: ATCC9341, in vitro broth dilution, read-out: M.I.C. values Microc. Luteus
# Method: as §1, §2, §3
# [5] = system: Staphylococcus (ATCC 6538); conditions: for MIC: ATCC6538, in vitro broth dilution, read-out: M.I.C. values Staph. (ATCC 6538)
# Method: as §1, §2, §3
# [6] = in vitro broth dilution, unit assumed
MIC [1],MIC (Streptococcus faecium),MIC [2],MIC [3],MIC (Bacillus cereus),MIC [4],MIC [5],SMILES,"M.I.C. values Staph. aureus [1, 6]",M.I.C. values Streptoc. faecium (Streptococcus faecium; unit assumed),"M.I.C. values Staph. epidermidis [2, 6]","M.I.C. values Bacillus subtilus [3, 6]",M.I.C. values Bacillus cereus (Bacillus cereus; unit assumed),"M.I.C. values Microc. Luteus [4, 6]","M.I.C. values Staph. (ATCC 6538) [5, 6]"
0.12 µg/mL,1 µg/mL,0.12 µg/mL,0.12 µg/mL,0.12 µg/mL,2 µg/mL,0.06 µg/mL,"O=C(O)c1cn(C2CC2)c2cc(NCCN3CCCCC3)c(F)cc2c1=O [JA 76, 1-cyclopropyl-6-fluoro-4-oxo-7-{[2-(1-piperidinyl)ethyl]-amino}-1,4-dihydro-3-quinolinecarboxylic acid]",–,–,–,–,–,–,–
0.06 µg/mL,1 µg/mL,0.12 µg/mL,0.12 µg/mL,0.06 µg/mL,2 µg/mL,0.12 µg/mL,"CN(CCCN)CCCNc1cc2c(cc1F)c(=O)c(C(=O)O)cn2C1CC1 [JA 102, 7-({3-[(3-aminopropyl)(methyl)amino]propyl}amino)-1-cyclopropyl-6-fluoro-4-oxo-1,4-dihydro-3-quinolinecarboxylic acid]",–,–,–,–,–,–,–
0.12 µg/mL,1 µg/mL,0.12 µg/mL,0.12 µg/mL,0.12 µg/mL,2 µg/mL,0.12 µg/mL,"O=C(O)c1cn(C2CC2)c2cc(N(Cc3ccco3)C(=O)c3cccs3)c(F)cc2c1=O [JA 124, 1-cyclopropyl-6-fluoro-7[(2-furylmethyl)(2-thienylcarbonyl)amino]-4-oxo-1,4-dihydro-3-quinolinecarboxylic acid]",–,–,–,–,–,–,–
0.12 µg/mL,1 µg/mL,0.06 µg/mL,0.12 µg/mL,0.06 µg/mL,2 µg/mL,0.12 µg/mL,"O=C(O)c1cn(C2CC2)c2cc(N(CCN3CCCCC3)C(=O)c3cccs3)c(F)cc2c1=O [JA 128, 1-cyclopropyl-6-fluoro-4-oxo-7-[[2-(1-piperidinyl)ethyl]-(2-thienylcarbonyl)amino]-1,4-dihydro-3-quinolinecarboxylic acid]",–,–,–,–,–,–,–
0.12 µg/mL,0.5 µg/mL,0.12 µg/mL,0.12 µg/mL,0.06 µg/mL,2 µg/mL,0.12 µg/mL,"COc1ccc(S(=O)(=O)N(CC2CCCO2)c2cc3c(cc2F)c(=O)c(C(=O)O)cn3C2CC2)cc1 (stereo not shown) [JA 135, 1-cyclopropyl-6-fluoro-7-[[(4-methoxyphenyl)sulfonyl](tetrahydro-2-furanylmethyl)amino]-4-oxo-1,4-dihydro-3-quinolinecarboxylic acid]",–,–,–,–,–,–,–
0.12 µg/mL,0.5 µg/mL,0.12 µg/mL,0.12 µg/mL,0.06 µg/mL,2 µg/mL,0.12 µg/mL,"O=C(O)c1cn(C2CC2)c2cc(N(CC3CCCO3)S(=O)(=O)c3ccc4ccccc4c3)c(F)cc2c1=O (stereo not shown) [JA 136, 1-cyclopropyl-6-fluoro-7-[(2-naphthylsulfonyl)(tetrahydro-2-furanylmethyl)amino]-4-oxo-1,4-dihydro-3-quinolinecarboxylic acid]",–,–,–,–,–,–,–
0.5 µg/mL,1 µg/mL,0.25 µg/mL,0.12 µg/mL,0.25 µg/mL,2 µg/mL,0.12 µg/mL,"O=C(O)c1cn(C2CC2)c2cc(N(CC3CCCO3)S(=O)(=O)CCc3ccccc3)c(F)cc2c1=O (stereo not shown) [JA 137, 1-cyclopropyl-6-fluoro-4-oxo-7-[(phenethylsulfonyl)(tetrahydro-2-furanylmethyl)amino]-1,4-dihydro-3-quinolinecarboxylic acid]",–,–,–,–,–,–,–
0.25 µg/mL,1 µg/mL,0.12 µg/mL,0.12 µg/mL,0.06 µg/mL,2 µg/mL,0.12 µg/mL,"O=C(O)c1cn(C2CC2)c2cc(N(CC3CCCO3)S(=O)(=O)C(F)(F)F)c(F)cc2c1=O (stereo not shown) [JA 138, 1-cyclopropyl-6-fluoro-4-oxo-7-{(tetrahydro-2-furanylmethyl)[(trifluoromethyl)sulfonyl]amino}-1,4-dihydro-3-quinolinecarboxylic acid]",–,–,–,–,–,–,–
0.12 µg/mL,0.5 µg/mL,0.12 µg/mL,0.06 µg/mL,0.06 µg/mL,1 µg/mL,0.06 µg/mL,"O=C(O)c1cn(C2CC2)c2cc(N(CC3CCCO3)C(=O)c3cccs3)c(F)cc2c1=O (stereo not shown) [JA 140, 1-cyclopropyl-6-fluoro-4-oxo-7-[(tetrahydro-2-furanylmethyl)(2-thienylcarbonyl)amino]-1,4-dihydro-3-quinolinecarboxylic acid]",–,–,–,–,–,–,–
0.25 µg/mL,1 µg/mL,0.12 µg/mL,0.12 µg/mL,0.12 µg/mL,2 µg/mL,0.12 µg/mL,"O=C(O)c1cn(C2CC2)c2cc(N(CC3CCCO3)c3cncc(Cl)n3)c(F)cc2c1=O (stereo not shown) [JA 141, 7-[(6-chloro-2-pyrazinyl)(tetrahydro-2-furanylmethyl)amino]-1-cyclopropyl-6-fluoro-4-oxo-1,4-dihydro-3-quinolinecarboxylic acid]",–,–,–,–,–,–,–
0.25 µg/mL,1 µg/mL,0.12 µg/mL,0.12 µg/mL,0.12 µg/mL,> 2 µg/mL,0.12 µg/mL,"O=C(O)c1cn(C2CC2)c2cc(N(CC3CCCO3)c3cccc(Cl)n3)c(F)cc2c1=O (stereo not shown) [JA 143, 7-[(6-chloro-2-pyridinyl)(tetrahydro-2-furanylmethyl)amino]-1-cyclopropyl-6-fluoro-4-oxo-1,4-dihydro-3-quinolinecarboxylic acid]",–,–,–,–,–,–,–
–,–,–,–,–,–,–,CC(=O)CC(=O)N(CC1CCCO1)c1cc2c(cc1F)c(=O)c(C(=O)O)cn2C1CC1 (stereo not shown) [JA 144],0.12 µg/mL,0.5 µg/mL,0.12 µg/mL,0.12 µg/mL,0.12 µg/mL,1 µg/mL,0.06 µg/mL
0.12 µg/mL,1 µg/mL,0.12 µg/mL,0.12 µg/mL,0.12 µg/mL,2 µg/mL,0.12 µg/mL,"O=C(O)c1cn(C2CC2)c2cc(N(CCc3ccncc3)CC3CCCO3)c(F)cc2c1=O (stereo not shown) [JA 145, 1-cyclopropyl-6-fluoro-4-oxo-7-[[2-(4-pyridinyl)ethyl](tetrahydro-2-furanylmethyl)amino]-1,4-dihydro-3-quinolinecarboxylic acid]",–,–,–,–,–,–,–
0.12 µg/mL,1 µg/mL,0.12 µg/mL,0.12 µg/mL,0.12 µg/mL,2 µg/mL,0.12 µg/mL,"O=C(O)c1cn(C2CC2)c2cc(N(CCc3ccccn3)CC3CCCO3)c(F)cc2c1=O (stereo not shown) [JA 146, 1-cyclopropyl-6-fluoro-4-oxo-7-[[2-(2-pyridinyl)ethyl](tetrahydro-2-furanylmethyl)amino]-1,4-dihydro-3-quinolinecarboxylic acid]",–,–,–,–,–,–,–
0.12 µg/mL,1 µg/mL,0.12 µg/mL,0.12 µg/mL,0.06 µg/mL,2 µg/mL,0.12 µg/mL,"COCC(C)N(C(=O)CC(C)=O)c1cc2c(cc1F)c(=O)c(C(=O)O)cn2C1CC1 (stereo not shown) [JA 148, 7-[acetoacetyl(2-methoxy-1-methylethyl)amino]-1-cyclopropyl-6-fluoro-4-oxo-1,4-dihydro-3-quinolinecarboxylic acid]",–,–,–,–,–,–,–
0.12 µg/mL,2 µg/mL,0.12 µg/mL,0.12 µg/mL,0.12 µg/mL,2 µg/mL,0.12 µg/mL,"COCC(C)N(c1cc2c(cc1F)c(=O)c(C(=O)O)cn2C1CC1)S(=O)(=O)c1ccc([N+](=O)[O-])cc1 (stereo not shown) [JA 149, 1-cyclopropyl-6-fluoro-7-{(2-methoxy-1-methylethyl)[(4-nitrophenyl)sulfonyl]amino}-4-oxo-1,4-dihydro-3-quinolinecarboxylic acid]",–,–,–,–,–,–,–
